Test results: patent US20060069132A1, “Azolecarboxamide herbicides” (priority 2004, published 2006)

Legend:
[1] = system: woolly cupgrass; assay: Test C pre-/postemergence herbicide test; type: in vivo, Eriochloa villosa
Procedure, shortened: (§1)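 Pre- and postemergence application, solvent/surfactant formulation; post at 1- to 4-leaf stage (2–18 cm). Greenhouse 12–14 d. Visual rating vs controls, 0 = no effect, 100 = complete control.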

[2] = system: barnyardgrass; assay: Test C flooded paddy test; type: in vivo, Echinochloa crus-galli; conditions: for Plant response rating, Barnyardgrass: 500 g ai/ha, visual rating after 12 to 14 days
Procedure, shortened: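 Visual rating, 0 (no effect) to 100 (complete control), vs. controls at 12–14 d in greenhouse. Postemergence: 1–4-leaf plants, 2–18 cm. Paddy: flooded, barnyardgrass at 2-leaf stage.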

[3] = system: yellow nutsedge; assay: Test C pre-/postemergence herbicide test; type: in vivo, Cyperus esculentus
Procedure, shortened: as §1

[4] = system: large crabgrass; assay: Test C pre-/postemergence herbicide test; type: in vivo, Digitaria sanguinalis
Procedure, shortened: as §1

[5] = system: wheat; assay: Test B postemergence herbicide test; type: in vivo, Triticum aestivum; set-up: key to Wheat plant response rating: 0 = no effect, 100 = complete control
Procedure, shortened: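 Plants grow to 1- to 4-leaf stage (2–18 cm) for postemergence spraying, or to 2-leaf stage for the paddy test. Formulated compound is applied. Greenhouse holding lasts 13–15 days. Response is scored visually relative to controls, 0 no effect to 100 complete control; a dash means no result.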

[6] = system: eastern black nightshade; assay: Test C pre-/postemergence herbicide test; type: in vivo, Solanum ptycanthum
Procedure, shortened: as §1

[7] = system: barnyardgrass; assay: Test B flooded paddy test; type: in vivo, Echinochloa crus-galli; conditions: 1000 g ai/ha, scale 0 to 100 (0 no effect, 100 complete control)
Procedure, shortened: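 Treated at 2-leaf (paddy) or 1–4-leaf, 2–18 cm (postemergence); greenhouse 13–15 d; visual score vs control, 0 none to 100 complete control; dash = not tested.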

[8] = system: rice; assay: Test C flooded paddy test; type: in vivo, Oryza sativa; conditions: for Plant response rating, Rice: 500 g ai/ha, visual rating after 12 to 14 days
Procedure, shortened: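 Plants were grown to the 1- to 4-leaf stage (2–18 cm) and then treated postemergence, or grown to the 2-leaf stage for the flooded paddy test. They were held in a greenhouse for 12 to 14 days and then scored by eye against controls, where 0 is no effect and 100 is complete control.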

[9] = system: giant foxtail; assay: Test A pre-/postemergence herbicide test; type: in vivo, Setaria faberi
Procedure, shortened: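 Visual injury rating on a 0–100 scale (0 no effect, 100 complete control) versus untreated controls, about ten days after treatment in greenhouse. Pre: directed soil spray onto seeded sandy loam. Post: spray to runoff on plants 2–10 cm tall at one- to two-leaf stage.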

[10] = 62 g ai/ha, preemergence, scale 0 to 100
[11] = 125 g ai/ha, scale 0 (no effect) to 100 (complete control), visual, 12 to 14 days, preemergence
[12] = 250 g ai/ha, scale 0-100, preemergence
[13] = 62 g ai/ha, scale 0 to 100 (0 no effect, 100 complete control)
[14] = 125 g ai/ha, scale 0 to 100 (0 no effect, 100 complete control)
[15] = 250 g ai/ha, scale of 0 to 100, 0 is no effect, 100 is complete control
[16] = scale 0 to 100 (0 no effect, 100 complete control)
[17] = 500 g ai/ha, scale 0 to 100 (0 no effect, 100 complete control), visual, 12 to 14 days, preemergence
[18] = 125 g ai/ha; visual rating, scale 0 (no effect) to 100 (complete control); postemergence
[19] = postemergence, 500 g ai/ha; scale 0 to 100, 0 is no effect, 100 is complete control
[20] = 250 g ai/ha, scale 0 to 100 (0 no effect, 100 complete control), visual, 12 to 14 days, preemergence
[21] = Preemergence, 500 g ai/ha, scale 0 to 100, 0 no effect, 100 complete control
[22] = 125 g ai/ha, scale of 0 to 100, 0 is no effect, 100 is complete control
[23] = postemergence, 125 g ai/ha; visual rating, scale 0 (no effect) to 100 (complete control)
[24] = Postemergence, 500 g ai/ha, scale 0 to 100
[25] = Postemergence, 250 g ai/ha, scale 0 to 100, 0 no effect, 100 complete control
[26] = postemergence, 125 g ai/ha, scale 0 to 100
[27] = postemergence, 62 g ai/ha, scale 0 to 100
[28] = Postemergence, 500 g ai/ha, 0 to 100 scale, 0 no effect, 100 complete control
[29] = Postemergence, 2000 g ai/ha, 0 to 100 scale, 0 no effect, 100 complete control
[30] = Preemergence, 2000 g ai/ha, visual rating, 0 to 100 scale (0 no effect, 100 complete control)
[31] = preemergence, 500 g ai/ha, visual injury, 0 to 100 scale (0 no effect, 100 complete control)

## CCN1N=C(C(C)(C)C)CC1C(=O)Nc1cc(C(=O)N2CC=CC2)ccc1F (racemic) [Compound 310]
[1]; [10]
  Plant response rating, Cupgrass, Woolly: 5
[1]; [11]
  Plant response rating, Cupgrass, Woolly: 10
[1]; [12]
  Plant response rating, Cupgrass, Woolly: 70
[2]; [13]
  Barnyardgrass plant response rating: 35
[2]; [14]
  Barnyardgrass plant response rating: 50
[2]; [15]
  Barnyardgrass plant response rating: 70
[2]; [16]
  Plant response rating, Barnyardgrass: 90
[3]; [10]
  Plant response rating, Nutsedge, Yellow: 0
[3]; [11]
  Plant response rating, Nutsedge, Yellow: 0
[3]; [12]
  Plant response rating, Nutsedge, Yellow: 0
[3]; [17]
  Plant response rating, Nutsedge, Yellow: 15
[4]; [10]
  Plant response rating, Crabgrass, Large: 30
[4]; [11]
  Plant response rating, Crabgrass, Large: 70
[4]; [12]
  Plant response rating, Crabgrass, Large: 100
[4]; [17]
  Plant response rating, Crabgrass, Large: 100
[5]; [18]
  Wheat plant response rating: 10
[5]; [19]
  Wheat plant response rating: 20
[6]; [10]
  Plant response rating, Nightshade: 30
[6]; [11]
  Plant response rating, Nightshade: 35
[6]; [12]
  Plant response rating, Nightshade: 100
[6]; [17]
  Plant response rating, Nightshade: 100
[7]
  Barnyardgrass plant response rating: 90
[8]; 62 g ai/ha, scale 0 to 100
  Rice plant response rating: 35
[8]; [14]
  Rice plant response rating: 60
[8]; [15]
  Rice plant response rating: 70
[8]; [16]
  Plant response rating, Rice: 80

## C=CCn1nc(C(C)(C)C)cc1C(=O)Nc1cccc(C(=O)NCC)c1 [Compound 56]
[1]; 62 g ai/ha, preemergence
  Plant response rating (0 = no effect, 100 = complete control), Cupgrass, Woolly: 0
[1]; [11]
  Plant response rating, Cupgrass, Woolly: 0
[1]; [20]
  Plant response rating, Cupgrass, Woolly: 35
[1]; [21]
  Cupgrass, Woolly plant response rating: 40
[2]; [13]
  Barnyardgrass plant response rating: 0
[2]; [22]
  Barnyardgrass plant response rating: 20
[2]; [15]
  Barnyardgrass plant response rating: 65
[2]; [16]
  Plant response rating, Barnyardgrass: 80
[3]; 62 g ai/ha, preemergence
  Plant response rating (0 = no effect, 100 = complete control), Nutsedge, Yellow: 0
[3]; [11]
  Plant response rating, Nutsedge, Yellow: 0
[3]; [20]
  Plant response rating, Nutsedge, Yellow: 0
[3]; [21]
  Nutsedge, Yellow plant response rating: 20
[4]; 62 g ai/ha, preemergence
  Plant response rating (0 = no effect, 100 = complete control), Crabgrass, Large: 95
[4]; [11]
  Plant response rating, Crabgrass, Large: 100
[4]; [20]
  Plant response rating, Crabgrass, Large: 100
[4]; [21]
  Crabgrass, Large plant response rating: 100
[5]; Postemergence, 500 g ai/ha; visual rating after 13 to 15 days, scale 0 (no effect) to 100 (complete control)
  Plant response rating, Wheat: 20
[5]; [23]
  Wheat plant response rating: 10
[6]; 62 g ai/ha, preemergence
  Plant response rating (0 = no effect, 100 = complete control), Nightshade: 90
[6]; [11]
  Plant response rating, Nightshade: 95
[6]; [20]
  Plant response rating, Nightshade: 95
[6]; [21]
  Nightshade plant response rating: 95
[7]; visual rating, 13 to 15 days
  Barnyardgrass plant response rating: 80
[8]; [13]
  Rice plant response rating: 0
[8]; [22]
  Rice plant response rating: 15
[8]; [15]
  Rice plant response rating: 25
[8]; [16]
  Plant response rating, Rice: 35

## CCc1nc(C(C)(C)C)sc1C(=O)Nc1cccc(C(=O)NCC2CC2)c1 [Compound 212]
[1]; [10]
  Plant response rating, Cupgrass, Woolly: 0
[1]; [11]
  Plant response rating, Cupgrass, Woolly: 0
[1]; [12]
  Plant response rating, Cupgrass, Woolly: 20
[1]; [17]
  Plant response rating, Cupgrass, Woolly: 30
[1]; [24]
  Cupgrass, Woolly plant response rating: 40
[1]; [25]
  Plant response rating, Cupgrass, Woolly: 30
[1]; [26]
  Plant response rating, Cupgrass, Woolly: 5
[1]; [27]
  Plant response rating, Cupgrass, Woolly: 5
[3]; [10]
  Plant response rating, Nutsedge, Yellow: 0
[3]; [11]
  Plant response rating, Nutsedge, Yellow: 0
[3]; [12]
  Plant response rating, Nutsedge, Yellow: 0
[3]; [17]
  Plant response rating, Nutsedge, Yellow: 0
[3]; [24]
  Nutsedge, Yellow plant response rating: 20
[3]; [25]
  Plant response rating, Nutsedge, Yellow: 20
[3]; [26]
  Plant response rating, Nutsedge, Yellow: 10
[3]; [27]
  Plant response rating, Nutsedge, Yellow: 0
[4]; [10]
  Plant response rating, Crabgrass, Large: 60
[4]; [11]
  Plant response rating, Crabgrass, Large: 80
[4]; [12]
  Plant response rating, Crabgrass, Large: 85
[4]; [17]
  Plant response rating, Crabgrass, Large: 100
[4]; [24]
  Crabgrass, Large plant response rating: 20
[4]; [25]
  Plant response rating, Crabgrass, Large: 20
[4]; [26]
  Plant response rating, Crabgrass, Large: 10
[4]; [27]
  Plant response rating, Crabgrass, Large: 0
[5]; [23]
  Wheat plant response rating: 10
[5]; postemergence, 500 g ai/ha; visual rating, scale 0 (no effect) to 100 (complete control)
  Wheat plant response rating: 20
[9]; [28]
  Foxtail, Giant plant response rating: 45
[9]; [29]
  Plant response rating, Foxtail, Giant: 80
[9]; [30]
  Foxtail, Giant plant response rating: 95
[9]; [31]
  Foxtail, Giant plant response rating: 70
[6]; [10]
  Plant response rating, Nightshade: 70
[6]; [11]
  Plant response rating, Nightshade: 100
[6]; [12]
  Plant response rating, Nightshade: 100
[6]; [17]
  Plant response rating, Nightshade: 100
[7]; visual rating, 13 to 15 days
  Barnyardgrass plant response rating: 50

## CCN(CC)C(=O)c1cccc(NC(=O)c2cc(C(C)(C)C)nn2C)n1 [Compound 314]
[1]; [10]
  Plant response rating, Cupgrass, Woolly: 0
[1]; [11]
  Plant response rating, Cupgrass, Woolly: 0
[1]; [12]
  Plant response rating, Cupgrass, Woolly: 0
[1]; [17]
  Plant response rating, Cupgrass, Woolly: 20
[3]; [10]
  Plant response rating, Nutsedge, Yellow: 0
[3]; [11]
  Plant response rating, Nutsedge, Yellow: 0
[3]; [12]
  Plant response rating, Nutsedge, Yellow: 0
[3]; [17]
  Plant response rating, Nutsedge, Yellow: 0
[4]; [10]
  Plant response rating, Crabgrass, Large: 0
[4]; [11]
  Plant response rating, Crabgrass, Large: 0
[4]; [12]
  Plant response rating, Crabgrass, Large: 40
[4]; [17]
  Plant response rating, Crabgrass, Large: 60
[5]; [18]
  Wheat plant response rating: 0
[5]; [19]
  Wheat plant response rating: 10
[9]; [28]
  Foxtail, Giant plant response rating: 30
[9]; [29]
  Plant response rating, Foxtail, Giant: 70
[9]; [30]
  Foxtail, Giant plant response rating: 90
[9]; [31]
  Foxtail, Giant plant response rating: 60
[6]; [10]
  Plant response rating, Nightshade: 60
[6]; [11]
  Plant response rating, Nightshade: 85
[6]; [12]
  Plant response rating, Nightshade: 90
[6]; [17]
  Plant response rating, Nightshade: 100
[7]
  Barnyardgrass plant response rating: 30

## C=CCNC(=O)c1cccc(NC(=O)c2cc(C(C)(C)C)nn2C)n1 [Compound 318]
[1]; [10]
  Plant response rating, Cupgrass, Woolly: 0
[1]; [11]
  Plant response rating, Cupgrass, Woolly: 0
[1]; [12]
  Plant response rating, Cupgrass, Woolly: 0
[1]; [17]
  Plant response rating, Cupgrass, Woolly: 10
[1]; [24]
  Cupgrass, Woolly plant response rating: 20
[1]; [25]
  Plant response rating, Cupgrass, Woolly: 10
[1]; [26]
  Plant response rating, Cupgrass, Woolly: 0
[1]; [27]
  Plant response rating, Cupgrass, Woolly: 0
[3]; [10]
  Plant response rating, Nutsedge, Yellow: 0
[3]; [11]
  Plant response rating, Nutsedge, Yellow: 0
[3]; [12]
  Plant response rating, Nutsedge, Yellow: 0
[3]; [17]
  Plant response rating, Nutsedge, Yellow: 0
[3]; [24]
  Nutsedge, Yellow plant response rating: 0
[3]; [25]
  Plant response rating, Nutsedge, Yellow: 0
[3]; [26]
  Plant response rating, Nutsedge, Yellow: 0
[3]; [27]
  Plant response rating, Nutsedge, Yellow: 0
[4]; [11]
  Plant response rating, Crabgrass, Large: 50
[4]; [12]
  Plant response rating, Crabgrass, Large: 60
[4]; [17]
  Plant response rating, Crabgrass, Large: 100
[4]; [24]
  Crabgrass, Large plant response rating: 50
[4]; [25]
  Plant response rating, Crabgrass, Large: 30
[4]; [26]
  Plant response rating, Crabgrass, Large: 0
[4]; [27]
  Plant response rating, Crabgrass, Large: 0
[5]; [18]
  Wheat plant response rating: 0
[5]; [19]
  Wheat plant response rating: 10
[9]; [28]
  Foxtail, Giant plant response rating: 50
[9]; [29]
  Plant response rating, Foxtail, Giant: 90
[9]; [30]
  Foxtail, Giant plant response rating: 85
[9]; [31]
  Foxtail, Giant plant response rating: 40
[6]; [10]
  Plant response rating, Nightshade: 80
[6]; [11]
  Plant response rating, Nightshade: 90
[6]; [12]
  Plant response rating, Nightshade: 95
[6]; [17]
  Plant response rating, Nightshade: 95
[7]
  Barnyardgrass plant response rating: 70
